Results reported in ChEMBL document CHEMBL1150497, “Imidazol-1-ylalkanoate esters and their corresponding acids. A novel series of extrinsic 1H NMR probes for intracellular pH” (Bioorg Med Chem Lett, 1992).

Assay: pKa value by 1H NMR spectroscopy
Format: physicochemical

| pKa | SMILES |
| --- | --- |
| 7.23 | O=C(O)Cn1ccnc1 |
| 6.86 | CCOC(=O)CC(C(=O)O)n1ccnc1 (centres undefined) |
| 5.02 | CCOC(=O)C(C(=O)OCC)n1ccnc1 |
| 6.45 | CCOC(=O)CC(CC(=O)OCC)n1ccnc1 |
| 6.02 | CCOC(=O)CC(C(=O)OCC)n1ccnc1 (centres undefined) |
| 7.1 | COC(=O)Cn1ccnc1 |
| 7.37 | O=C(O)CC(CC(=O)O)n1ccnc1 |
| 7.32 | O=C(O)CC(C(=O)O)n1ccnc1 (centres undefined) |

| SMILES | pKa |
| --- | --- |
| c1c[nH]cn1 [IMIDAZOLE] | 7.14 |
